According to publication PMC9331150 (ACS Medicinal Chemistry Letters, 2022):

Experiments:
HCoV 229E 3CL^pro = HCoV 229E 3CL^pro (Human coronavirus 229E, UniProt P0C6U2); experiment: biochemical; format: biochemical
HCoV 229E = format: cell-based
SARS-CoV-2 3CL^pro = SARS-CoV-2 3CL^pro (Severe acute respiratory syndrome coronavirus 2, UniProt P0DTD1); format: biochemical
SARS-CoV-2 = settings: read-out: EC50 against SARS-CoV-2; human bronchial epithelial cells; cited from earlier work
rhinovirus infection = settings: cited from earlier work

HCoV 229E 3CL^pro, sequence (P0C6U2 2966-3267): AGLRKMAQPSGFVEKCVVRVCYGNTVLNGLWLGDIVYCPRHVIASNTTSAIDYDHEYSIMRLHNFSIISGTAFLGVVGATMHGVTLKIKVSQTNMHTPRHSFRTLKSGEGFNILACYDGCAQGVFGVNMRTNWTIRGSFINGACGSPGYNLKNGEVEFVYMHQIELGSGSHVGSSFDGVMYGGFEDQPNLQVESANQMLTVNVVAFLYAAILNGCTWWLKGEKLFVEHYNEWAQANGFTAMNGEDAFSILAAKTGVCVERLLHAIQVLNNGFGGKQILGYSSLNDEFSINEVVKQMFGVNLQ

Row | Compound | IC50 (HCoV 229E 3CL^pro) [µM] | fold less potent than nirmatrelvir (EC50, cell-based HCoV 229E) (HCoV 229E) | other results
1 | CC(C)(C)[C@H](NC(=O)C(F)(F)F)C(=O)N1C[C@H]2[C@@H]([C@H]1C(=O)NCCC1CCNC1=O)C2(C)C (stereo partly drawn) [Compound 1] | > 100 | – | –
2 | CC(C)(C)[C@H](NC(=O)C(F)(F)F)C(=O)N1C[C@H]2[C@@H]([C@H]1C(=O)N[C@H](C=O)C[C@@H]1CCNC1=O)C2(C)C [Compound 2] | – | ~4 fold | fold inhibitory activity improvement for HCoV 229E 3CL^pro compared to nirmatrelvir (HCoV 229E 3CL^pro; IC50 ratio vs nirmatrelvir): 9 fold
3 | CC(C)(C)[C@H](NC(=O)C(F)(F)F)C(=O)N1C[C@H]2[C@@H]([C@H]1C(=O)N[C@H](CO)C[C@@H]1CCNC1=O)C2(C)C [Compound 3] | > 100 | – | –
4 | CC(C)(C)[C@H](NC(=O)C(F)(F)F)C(=O)N1C[C@H]2[C@@H]([C@H]1C(=O)N[C@@H](C[C@@H]1CCNC1=O)C(N)=O)C2(C)C [Compound 4] | > 100 | – | –
5 | COC(=O)[C@H](C[C@@H]1CCNC1=O)NC(=O)[C@@H]1[C@@H]2[C@H](CN1C(=O)[C@@H](NC(=O)C(F)(F)F)C(C)(C)C)C2(C)C [Compound 6] | > 100 | – | –
6 | CC(C)(C)[C@H](NC(=O)C(F)(F)F)C(=O)N1C[C@H]2[C@@H]([C@H]1C(=O)N[C@@H](C[C@@H]1CCNC1=O)C(=O)C(=O)NC1CC1)C2(C)C [Compound 8] | – | 11 fold | fold improvement / more potent than nirmatrelvir (IC50, SARS-CoV-2 and HCoV 229E 3CL^pro) (SARS-CoV-2 3CL^pro): approximately 2 fold
7 | CC(C)(C)[C@H](NC(=O)C(F)(F)F)C(=O)N1C[C@H]2[C@@H]([C@H]1C(=O)N[C@@H](C[C@@H]1CCNC1=O)C(=O)COCc1ccccc1)C2(C)C [Compound 9] | – | approximately 2 fold | fold less potent than nirmatrelvir against HCoV 229E 3CL^pro (IC50) (HCoV 229E 3CL^pro): 3 fold
8 | CC(C)(C)[C@H](NC(=O)C(F)(F)F)C(=O)N1C[C@H]2[C@@H]([C@H]1C(=O)N[C@H](C#N)C[C@@H]1CCNC1=O)C2(C)C [Nirmatrelvir] | – | – | EC50 (SARS-CoV-2): 0.075 µM
9 | CCOC(=O)/C=C/[C@H](C[C@@H]1CCNC1=O)NC(=O)[C@@H](CC(=O)[C@@H](NC(=O)c1cc(C)on1)C(C)C)Cc1ccc(F)cc1 [rupintrivir] | – | – | efficacy against rhinovirus infection in phase 2 clinical trials (rhinovirus infection): lack of efficacy
